# Target: T1, DAT (Drosophila melanogaster, UniProt Q94521)
# T1 construct: gene speck; construct, tags and host of the DAT used for ITC not described
# Experiment: ITC
# Type: binding
# T1 sequence (Q94521 36-275): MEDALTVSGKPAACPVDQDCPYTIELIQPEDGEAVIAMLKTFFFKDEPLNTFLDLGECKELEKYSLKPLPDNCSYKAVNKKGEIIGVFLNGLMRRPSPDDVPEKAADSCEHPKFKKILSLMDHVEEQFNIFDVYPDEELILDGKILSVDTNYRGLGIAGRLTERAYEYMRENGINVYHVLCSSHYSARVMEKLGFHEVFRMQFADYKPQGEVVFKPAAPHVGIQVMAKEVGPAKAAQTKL
structure (smiles),measurement,value
CC(=O)SCCNC(=O)CCNC(=O)[C@H](O)C(C)(C)COP(=O)(O)OP(=O)(O)OC[C@H]1O[C@@H](n2cnc3c(N)ncnc32)[C@H](O)[C@@H]1OP(=O)(O)O [acetyl-CoA],Kd,3.7 ± 0.1 µM

# Reference: PMC5423648, “Acetyl group coordinated progression through the catalytic cycle of an arylalkylamine N-acetyltransferase” (PLoS ONE, 2017)
